“And” between values parts separate entries of the source, which are not always exact repeats. Identical values can stand only once.
Experiments:
HeLa cells = assay: MTT assay for cell viability; type: cell-based, human; conditions: 24 h; for cytotoxicity at high concentrations: 1 to 100 µM
Excerpt: We characterized the activity of novel compounds in a cellular assay to establish whether there were any cytotoxic effects. We used an established MTT (3-(4,5-dimethylthiazolyl-2)-2, 5-diphenyltetrazolium bromide or thiazolyl blue) method using HELA cells to determine whether the small molecule affects cell viability. In this method, a purple formazan dye forms as a result of the cleavage of the yellow tetrazolium MTT within metabolically active cells. The resulting precipitate of the intracellular formazan can be dissolved in a detergent solution and quantified spectrophotometrically at 595 nm. We measured the cytotoxicity by incubating HELA cells in the presence of novel compounds at concentrations ranging from 1 to 100 µM for 24 h. Cell viability was measured using the MTT method after […] culture. The extent of cell death was expressed relative to a control containing DMSO. […] Therefore, as a next step we tested the effects of lead compounds on insulin catabolism using HeLa cells.
The cytotoxicity assay was performed using human cervical cancer HeLa cells. Cells were cultured at 37°C under a humidified atmosphere of 5% CO2 in medium supplemented with 10% fetal bovine serum and dispersed in replicate 96-well plates with 2.5×10^4 cells/well. Compounds were then added. After 24 hours exposure to the chemical compounds, the cell viability was determined by 3-[4,5-dimethylthiazol-2-yl]-2,5-diphenpyltetrazolium bromide (MTT) assay. The optical density (OD) of the wells was determined using ELISA plate reader at a test wavelength of 600 nm and a reference wavelength of 630 nm. Each measurement was carried out in triplicate.

IDE = biological target: T1, IDE (Homo sapiens, UniProt P14735); assay: Degradation of fluorogenic substrate V by IDE; type: biochemical; conditions: for increase of IDE-mediated substrate V degradation: 20 µM compound; for EC50: dose response, Sigmoidal Hill 4 parameter fit
T1 construct: made in house; host or cells: E. coli BL21
T1 sequence (P14735 1-1019): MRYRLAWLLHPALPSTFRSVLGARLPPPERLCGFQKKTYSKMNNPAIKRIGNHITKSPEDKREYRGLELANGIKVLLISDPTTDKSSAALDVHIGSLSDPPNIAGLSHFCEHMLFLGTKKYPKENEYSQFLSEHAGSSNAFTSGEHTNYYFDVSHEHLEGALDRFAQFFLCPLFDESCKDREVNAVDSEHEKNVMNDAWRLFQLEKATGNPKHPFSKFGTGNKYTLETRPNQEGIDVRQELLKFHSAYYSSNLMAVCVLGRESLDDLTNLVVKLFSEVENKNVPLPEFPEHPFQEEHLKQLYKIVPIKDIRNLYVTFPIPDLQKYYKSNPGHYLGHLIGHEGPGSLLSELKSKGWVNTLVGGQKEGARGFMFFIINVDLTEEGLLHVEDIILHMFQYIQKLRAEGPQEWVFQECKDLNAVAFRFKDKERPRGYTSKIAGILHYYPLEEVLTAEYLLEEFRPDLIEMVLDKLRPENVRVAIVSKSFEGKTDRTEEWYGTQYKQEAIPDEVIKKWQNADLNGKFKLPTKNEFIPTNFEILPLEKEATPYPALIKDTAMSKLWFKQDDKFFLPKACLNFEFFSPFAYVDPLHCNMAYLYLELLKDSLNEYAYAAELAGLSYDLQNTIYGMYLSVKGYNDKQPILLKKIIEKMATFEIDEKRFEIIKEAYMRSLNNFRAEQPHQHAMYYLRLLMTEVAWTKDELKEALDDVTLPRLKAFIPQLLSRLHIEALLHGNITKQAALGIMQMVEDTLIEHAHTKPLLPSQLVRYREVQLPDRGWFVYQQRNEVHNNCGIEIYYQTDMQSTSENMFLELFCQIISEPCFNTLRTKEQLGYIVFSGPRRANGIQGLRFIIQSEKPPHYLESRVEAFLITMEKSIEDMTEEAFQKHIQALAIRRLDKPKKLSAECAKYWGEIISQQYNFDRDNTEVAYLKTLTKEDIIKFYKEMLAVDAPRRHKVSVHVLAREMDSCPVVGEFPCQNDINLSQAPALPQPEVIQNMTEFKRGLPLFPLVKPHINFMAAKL
Description: The 10 compounds given in Table 1 were subjected to further characterization and their effect was measured on the proteolytic activity of IDE using different substrates. Initially, activity assays were carried out at fixed 20 µM concentrations for all molecules to identify the effect of those compounds on IDE activity. IDE activity was quantified by monitoring the change in fluorescence for the proteolysis of fluorogenic-substrate V, FITC- insulin-bound antibody, and FAβB by recombinant human IDE purified from E.coli BL21 [6], [18], [19]. […] Also, D6 increased the amyloid-β degradation by 20% (Fig. S1C). Further, D10 enhanced IDE-mediated FITC-insulin-mAb and substrate V degradation by 290% and 65%, respectively (Fig. S1A, B). Next, an EC50 value of each molecule that enhanced IDE activity was determined with a dose response assay, where specific activity of IDE was measured with different concentrations of the lead compounds and then the plot was fit to Sigmoidal Hill-4 parameter equation. […] EC50 value for D3 on insulin degradation was approximately measured as 20 µM (Fig. S2C), whereas EC50 value for D6 on amyloid-β degradation was 2 µM (Fig. S2D). […] Among all these four compounds, D10 seems to be the potent activator of IDE, when proteolysis of insulin is considered.
To assess the utility of these novel compounds as chemical regulators for IDE activity, we used fluorescence assay with fluorogenic substrate V (7-methoxycoumarin-4-yl-acetyl-NPPGFSAFK-2, 4-dinitrophenyl). Reaction was carried out in the presence of 105 µl of 10 µl of 40 µM substrate V; 10 µl of 0.02 mg/ml of IDE in 83 µl of 30 mM KH2PO4 at pH of 7.3, and various concentrations (0–35 µM) compounds and also with various time intervals (0–4 hours). The reaction mixture was incubated at 37°C for 2.5 h. The hydrolysis of substrate V was monitored using a Tecan Safire2 microplate reader with excitation and emission wavelengths set at 300 and 395 nm, respectively.
The effect of the lead compounds on the initial rate of proteolysis of IDE was determined by measurement in fluorescence with time both in the presence and absence of the lead compounds. The kinetic data for IDE-mediated insulin, substrate V and amyloid-β degradation were plotted and fitted using SigmaPlot software (Sigmoidal, Hill, 4 parameter). For the initial rate calculations, kinetic data were fitted using SigmaPlot software (Hyperbola; Single Rectangular I, 3 Parameter).

Compound | cytotoxicity at high concentrations (HeLa cells) | increase of IDE-mediated substrate V degradation (IDE) | EC50 (IDE) | cell viability (HeLa cells; 7.5 µM) | cell viability (HeLa cells; 100 µM) | increase of initial rate of substrate V degradation (IDE; presence vs absence of compound)
COc1ccc(C2C(C(=O)Nc3ccccc3)=C(C)N=c3sc(=Cc4cn(C)nc4C)c(=O)n32)cc1 (stereo not drawn) [Compound D3] | did not demonstrate any toxicity | – | – | – | – | –
Nc1c(C(=O)Nc2ccccc2F)c2ccccn2c1C(=O)c1ccc2c(c1)CCCC2 [Compound D4] | – | 36% | 7 µM | approximately 85% | 60% | –
Cc1nn(-c2ccccc2)c2nc(-c3cccc([N+](=O)[O-])c3)n3c4ccccc4nc3c2c1=O [Compound D10] | did not demonstrate any toxicity | 65% and 60% | 13 µM | – | – | about 2 fold

— paper PMC3280214, “Structure Based Discovery of Small Molecules to Regulate the Activity of Human Insulin Degrading Enzyme” (PLoS ONE, 2012)
